From patent US7173062B2, “Method for the improvement of skin wrinkles using retinyl retinoate” (Enprani Co., Ltd., priority 2001, dated 2007)
“Also recorded” adds a separate entry of the source.

Key:
skin of normal adults = experiment: Test for skin irritation property (closed patch test); type: in vivo, human; conditions: closed patch test 24 hours, 20 adults
Experimental: In order to examine the skin irritation of the compound of formula (1), a patch test for the skin of normal adults was carried out. As the carrier, capryl caprylic triglyceride or the conventional O/W formulation was used, and twenty (20) adults per a group were tested for 24 hours.
The conventional O/W formulation used in the present experiment was prepared according to the following procedure.
Each of the aqueous part of Nos. 1–6 and the oily part of Nos. 7–13 as shown in the following Table 1 was heated to 75–80° C. to be thoroughly dissolved. The oily part was slowly added to the aqueous part and emulsification was performed for 5 minutes at 75–80° C. in a homomixer of 3000rpm. During the emulsification, the mixture was neutralized by the neutralizing agent of No. 14. After the first emulsification, the mixture was cooled, the retinal retaliate and fragrance of Nos. 15–16 were added at 50–55° C., and then the second emulsification was carried out for 3 minutes in a homomixer of 3000rpm. The mixture was cooled again to 27–30° C. to prepare the composition of O/W formulation.
From the experimental results, the irritation indexes were calculated according to the following Equation 1 and the results are represented in the following Table 2. Irritation index={Σ(Test Value×Number of Examinees Corresponding to the Test Value)/(Total Examinees×The Maximum Test Value)×100 Equation 1
Test Value +++: 5, ++: 4, +: 3, +−: 2, −:1
The degree of irritation was determined according to the following standards:
1.9 or less: Minute irritation, 2.0–2.9: Weak irritation, 3.0–3.9: Moderate irritation, 4.0 or more: Strong irritation

[1] = Thermal stability test (quantitative HPLC); type: physicochemical; conditions: humidity 58%, in % (unit assumed)
Experimental: In order to compare thermal stability of the compound of formula (1) with retinol, phase stability for 1 month in a thermohygrostat (humidity: 58%) of room temperature, 40° C., and 4° C. was examined by a quantitative HPLC analysis under the following condition.
1) Column: Capcellpak UG 120 (5 μm, 4.6 mm*150 mm, shiseido, Japan)
3) Detector: UV(PDA 326 nm), • Fluorescence: Ex: 326nrm, Em: 460 nm

RAR α = molecular target: T1, RAR α (Homo sapiens, UniProt P10276); experiment: Activity for RAR α (CAT reporter in HaCaT cells); type: cell-based; conditions: 1 μM, CAT ELISA
T1 construct: expressed in transfected cells; host or cells: HaCaT
T1 sequence (P10276 1-462): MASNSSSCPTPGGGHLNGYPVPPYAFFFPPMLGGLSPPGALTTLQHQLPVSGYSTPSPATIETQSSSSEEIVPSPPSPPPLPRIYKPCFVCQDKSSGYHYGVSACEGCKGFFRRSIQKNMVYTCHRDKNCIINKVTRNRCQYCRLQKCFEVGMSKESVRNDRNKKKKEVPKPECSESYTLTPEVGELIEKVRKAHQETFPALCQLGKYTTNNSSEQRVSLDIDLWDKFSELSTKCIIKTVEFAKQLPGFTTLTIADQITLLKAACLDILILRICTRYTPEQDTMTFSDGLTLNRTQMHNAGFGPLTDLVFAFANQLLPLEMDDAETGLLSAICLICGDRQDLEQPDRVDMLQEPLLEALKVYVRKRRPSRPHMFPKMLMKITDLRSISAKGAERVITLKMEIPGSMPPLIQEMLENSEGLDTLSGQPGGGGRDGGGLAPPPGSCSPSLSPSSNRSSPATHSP
Experimental: (§1) The effect of the retinol derivatives on the activity of RAR and RXR was examined as follows.
(§2) Experimental procedure: Recombinant gene of DR5-tk-CAT or DR1-tk-CAT comprising DR1 or DR5 as a response element of RAR/RXR, […] promoter, and CAT (chloramphenicol acetyl transferase) was suitably combined with a plasmid DNA that expresses RAR α, β, γ and cotransfected to HaCaT cell line, a skin cancer cell line, with Lipofectamin (GibcoBRL). Then, the cells were incubated in DMEM/10% FBS medium for 1 day, retinol derivative was added in a concentration of 1 μM, and the cells were incubated again for 1 day under the condition of 5% CO2 and 37° C. The cells were washed with phosphate-buffered salione (PBS). Proteins were extracted from each cell, the activity of β-galactosidase was assayed, and the amount of protein was measured to determine the transfection efficiency. Further, the degree of transcription for RAR or RXR was analyzed by CAT ELISA (Roche Molecular Biochemicals, Mannheim, Germany).

RAR γ = molecular target: T2, RAR γ (Homo sapiens, UniProt P13631); experiment: Activity for RAR γ (CAT reporter in HaCaT cells); type: cell-based; conditions: 1 μM, CAT ELISA
T2 construct: expressed in transfected cells; host or cells: HaCaT
T2 sequence (P13631 1-454): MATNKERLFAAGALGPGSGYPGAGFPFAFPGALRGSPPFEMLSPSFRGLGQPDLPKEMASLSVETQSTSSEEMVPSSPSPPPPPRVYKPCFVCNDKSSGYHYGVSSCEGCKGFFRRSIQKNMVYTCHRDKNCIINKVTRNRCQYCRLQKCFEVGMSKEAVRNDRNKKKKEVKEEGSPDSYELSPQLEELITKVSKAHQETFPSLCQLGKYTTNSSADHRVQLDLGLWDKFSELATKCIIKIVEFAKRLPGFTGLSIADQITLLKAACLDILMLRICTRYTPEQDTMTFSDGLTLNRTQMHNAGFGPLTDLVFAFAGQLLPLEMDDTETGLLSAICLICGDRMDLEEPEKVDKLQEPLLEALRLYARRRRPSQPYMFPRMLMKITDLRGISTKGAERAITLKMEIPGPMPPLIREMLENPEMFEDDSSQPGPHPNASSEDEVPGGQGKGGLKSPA
Experimental: as §1, §2

RXR α, β, γ = experiment: Activity for RXR (CAT reporter in HaCaT cells); type: cell-based; conditions: 1 μM, CAT ELISA
Experimental: as §1, §2

[2] = 0.075% in C.C.T (capryl caprylic triglyceride)
[3] = Control = 1.0, listed as compound of formula (1)

Structure (SMILES)	Irritation Index (skin of normal adults; [2])	Degree of Irritation (skin of normal adults; 0.075% in C.C.T)	Thermal stability (amount by quantitative HPLC) ([1]; After 1 week, 4° C.)	Thermal stability (amount by quantitative HPLC) ([1]; After 1 week, 40° C.)	Thermal stability (amount by quantitative HPLC) ([1]; After 1 week, r.t.)	Thermal stability (amount by quantitative HPLC) ([1]; After 2 weeks, 4° C.)	Thermal stability (amount by quantitative HPLC) ([1]; After 2 weeks, 40° C.)	Thermal stability (amount by quantitative HPLC) ([1]; After 2 weeks, r.t.)	Thermal stability (amount by quantitative HPLC) ([1]; After 4 weeks, 4° C.)	Thermal stability (amount by quantitative HPLC) ([1]; After 4 weeks, 40° C.)	Thermal stability (amount by quantitative HPLC) ([1]; After 4 weeks, r.t.)	Thermal stability (amount by quantitative HPLC) ([1]; Initial value, 4° C.)	Thermal stability (amount by quantitative HPLC) ([1]; Initial value, 40° C.)	Thermal stability (amount by quantitative HPLC) ([1]; Initial value, r.t.)	Relative activity against RAR α (RAR α; Control = 1.0)	Relative activity against RAR γ (RAR γ; Control = 1.0)	Relative activity against RXR α, β, γ (RXR α, β, γ; Control = 1.0)	further results
CC1=C(/C=C/C(C)=C/C=C/C(C)=C/COC(=O)/C=C(C)/C=C/C=C(C)/C=C/C2=C(C)CCCC2(C)C)C(C)(C)CCC1 [Compound of formula (1), Retinyl retinoate]	1.3	Minute irritation (1.9 or less: Minute irritation)	100	74.46	92.77	100	70.25	90.45	99.65	68.23	89.21	100	100	100	22.5	1.1	1.0	Degree of Irritation (skin of normal adults; 0.3% in C.C.T): Minute irritation (1.9 or less: Minute irritation); Irritation Index (skin of normal adults; 0.3% in C.C.T): 1.3; Degree of Irritation (skin of normal adults; 0.3% in O/W Formulation): Weak irritation (2.0–2.9: Weak irritation); Irritation Index (skin of normal adults; 0.3% in O/W Formulation): 2.0; Degree of Irritation (skin of normal adults; 0.55% in C.C.T): Minute irritation (1.9 or less: Minute irritation); Irritation Index (skin of normal adults; 0.55% in C.C.T): 1.3; Relative activity against RAR α (RAR α; [3]): relatively specific and high activity; Relative activity against RAR γ (RAR γ; [3]): lower activity than retinoic acid but higher one than retinol; also recorded: low activity
CC1=C(/C=C/C(C)=C/C=C/C(C)=C/CO)C(C)(C)CCC1 [Retinol]	2.5	Weak irritation (2.0–2.9: Weak irritation)	100	56.08	74.27	98.23	43.26	65.23	95.52	34.51	52.23	100	100	100	27.5	0.9	1.0	Relative activity against RXR α, β, γ (RXR α, β, γ; Control = 1.0, listed as retinol): no activity
